Laboratory results taken from ChEMBL document CHEMBL2331529, “Design and Synthesis of Potent Bivalent Peptide Agonists Targeting the EphA2 Receptor” (ACS Med Chem Lett, 2013).
Active and inactive are the calls of the source. The rule behind the calls is not given here.

Key:
[1] = target: Ephrin type-A receptor 2 (Homo sapiens, UniProt P29317); test: Agonist activity at IgG1 Fc region fused-immobilized EphA2 ectodomain (unknown origin) assessed as inhibition of EphA2/ephrin-A5 AP interaction incubated for 3 hrs by ELISA
Sequence of Ephrin type-A receptor 2 (P29317 whole entry, the tested form may be a part): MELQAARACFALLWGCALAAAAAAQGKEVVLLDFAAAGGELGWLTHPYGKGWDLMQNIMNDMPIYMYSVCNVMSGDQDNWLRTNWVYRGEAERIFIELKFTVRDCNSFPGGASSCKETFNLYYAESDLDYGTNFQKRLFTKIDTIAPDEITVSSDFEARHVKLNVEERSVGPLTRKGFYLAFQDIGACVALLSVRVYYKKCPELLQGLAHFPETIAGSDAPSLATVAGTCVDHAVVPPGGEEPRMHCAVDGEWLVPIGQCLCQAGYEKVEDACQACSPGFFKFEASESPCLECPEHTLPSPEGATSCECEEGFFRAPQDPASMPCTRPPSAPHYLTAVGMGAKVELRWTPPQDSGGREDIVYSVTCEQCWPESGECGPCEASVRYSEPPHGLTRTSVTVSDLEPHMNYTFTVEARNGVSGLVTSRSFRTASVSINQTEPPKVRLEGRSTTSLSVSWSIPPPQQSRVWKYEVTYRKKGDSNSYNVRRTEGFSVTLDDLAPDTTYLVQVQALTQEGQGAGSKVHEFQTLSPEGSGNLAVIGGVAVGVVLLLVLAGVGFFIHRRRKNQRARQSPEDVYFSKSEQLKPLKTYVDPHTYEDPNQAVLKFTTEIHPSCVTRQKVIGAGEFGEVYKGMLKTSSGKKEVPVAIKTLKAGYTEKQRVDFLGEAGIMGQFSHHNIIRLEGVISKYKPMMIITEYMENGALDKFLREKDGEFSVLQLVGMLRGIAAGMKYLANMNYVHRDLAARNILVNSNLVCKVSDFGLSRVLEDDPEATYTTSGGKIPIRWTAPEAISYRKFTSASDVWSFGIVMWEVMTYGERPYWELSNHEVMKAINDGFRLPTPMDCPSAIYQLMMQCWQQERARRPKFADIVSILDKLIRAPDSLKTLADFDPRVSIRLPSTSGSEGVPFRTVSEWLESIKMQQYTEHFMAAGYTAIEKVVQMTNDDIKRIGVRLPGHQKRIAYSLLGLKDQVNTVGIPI

[2] = target: Ephrin type-A receptor 4 (Homo sapiens) (UniProt P54764); test: Agonist activity at IgG1 Fc region fused-immobilized EphA4 (unknown origin) assessed as inhibition of EphA4/ephrin-A5 AP interaction at 10 uM incubated for 3 hrs by ELISA
Sequence of Ephrin type-A receptor 4 (Homo sapiens) (P54764 whole entry, the tested form may be a part): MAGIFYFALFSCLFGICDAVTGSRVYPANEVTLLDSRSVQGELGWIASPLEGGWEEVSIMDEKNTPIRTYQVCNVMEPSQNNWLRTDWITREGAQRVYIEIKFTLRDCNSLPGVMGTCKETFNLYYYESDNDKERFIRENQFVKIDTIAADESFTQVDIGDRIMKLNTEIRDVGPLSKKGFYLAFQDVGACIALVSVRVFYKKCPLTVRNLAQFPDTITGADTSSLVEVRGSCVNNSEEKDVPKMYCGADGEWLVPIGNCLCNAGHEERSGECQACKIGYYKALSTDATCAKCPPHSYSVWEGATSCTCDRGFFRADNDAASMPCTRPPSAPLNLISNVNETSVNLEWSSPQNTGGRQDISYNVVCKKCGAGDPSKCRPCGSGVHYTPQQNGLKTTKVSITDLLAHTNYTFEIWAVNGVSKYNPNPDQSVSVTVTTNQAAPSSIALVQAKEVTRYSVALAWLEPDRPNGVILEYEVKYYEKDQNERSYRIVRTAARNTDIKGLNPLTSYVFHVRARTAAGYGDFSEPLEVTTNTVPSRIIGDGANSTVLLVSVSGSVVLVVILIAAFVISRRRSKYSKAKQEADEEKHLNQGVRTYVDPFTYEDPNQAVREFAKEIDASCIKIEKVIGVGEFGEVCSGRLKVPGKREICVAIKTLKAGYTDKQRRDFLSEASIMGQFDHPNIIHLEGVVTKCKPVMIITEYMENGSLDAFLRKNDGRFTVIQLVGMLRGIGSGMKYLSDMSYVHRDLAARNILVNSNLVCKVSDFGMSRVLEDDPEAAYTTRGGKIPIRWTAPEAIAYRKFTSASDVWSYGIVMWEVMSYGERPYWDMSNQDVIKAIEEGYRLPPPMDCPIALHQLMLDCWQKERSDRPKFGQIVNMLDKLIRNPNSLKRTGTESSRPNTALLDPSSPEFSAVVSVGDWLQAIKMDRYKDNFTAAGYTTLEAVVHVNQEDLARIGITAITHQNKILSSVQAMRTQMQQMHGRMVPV

[3] = target: T1, Ephrin type-B receptor 2 (Homo sapiens) (UniProt P29323); test: Agonist activity at IgG1 Fc region fused-immobilized EphB2 (unknown origin) assessed as inhibition of EphB2/ephrin-B2 AP interaction at 10 uM incubated for 3 hrs by ELISA
T1 sequence (whole entry): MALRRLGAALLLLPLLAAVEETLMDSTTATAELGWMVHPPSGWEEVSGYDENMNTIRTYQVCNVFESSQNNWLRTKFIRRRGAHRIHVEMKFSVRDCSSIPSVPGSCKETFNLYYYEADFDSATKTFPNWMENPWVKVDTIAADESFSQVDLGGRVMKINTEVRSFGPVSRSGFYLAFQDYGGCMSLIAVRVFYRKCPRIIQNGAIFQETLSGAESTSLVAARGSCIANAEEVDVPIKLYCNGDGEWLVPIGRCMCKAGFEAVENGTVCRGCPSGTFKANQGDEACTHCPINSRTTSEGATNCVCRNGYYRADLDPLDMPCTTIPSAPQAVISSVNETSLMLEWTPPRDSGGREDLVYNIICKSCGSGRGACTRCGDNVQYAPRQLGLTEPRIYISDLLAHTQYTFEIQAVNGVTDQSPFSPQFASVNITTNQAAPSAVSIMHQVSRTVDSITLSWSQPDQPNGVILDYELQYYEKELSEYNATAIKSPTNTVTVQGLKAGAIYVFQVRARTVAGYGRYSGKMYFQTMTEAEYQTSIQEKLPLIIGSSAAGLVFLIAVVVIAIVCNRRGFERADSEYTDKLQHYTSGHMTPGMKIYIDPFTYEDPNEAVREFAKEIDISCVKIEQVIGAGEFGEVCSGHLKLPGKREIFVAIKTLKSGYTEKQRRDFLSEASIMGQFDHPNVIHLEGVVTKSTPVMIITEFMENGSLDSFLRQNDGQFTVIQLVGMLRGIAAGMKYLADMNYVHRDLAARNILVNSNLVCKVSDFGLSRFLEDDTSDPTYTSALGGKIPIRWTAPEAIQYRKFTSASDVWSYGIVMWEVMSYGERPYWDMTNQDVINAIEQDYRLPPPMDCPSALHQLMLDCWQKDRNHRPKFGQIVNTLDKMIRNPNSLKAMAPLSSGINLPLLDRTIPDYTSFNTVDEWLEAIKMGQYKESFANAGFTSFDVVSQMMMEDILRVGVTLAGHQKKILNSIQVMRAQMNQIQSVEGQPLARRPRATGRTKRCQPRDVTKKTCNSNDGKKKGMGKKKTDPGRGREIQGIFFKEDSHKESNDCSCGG

Row | Molecule | IC50 [1] [µM] | inhibition [2] | inhibition [3]
1 | H-SWLAAPGAVSYR-OH | ≥ 100 | – | –
2 | H-SWLAYAGAVSYR-OH | ≥ 100 | – | –
3 | CC(C)C[C@H](NC(=O)[C@H](C)NC(=O)[C@H](Cc1ccc(O)cc1)NC(=O)[C@@H]1CCCN1C(=O)CNC(=O)[C@H](C)NC(=O)[C@@H](NC(=O)[C@H](CO)NC(=O)[C@H](Cc1ccc(O)cc1)NC(=O)[C@H](CCCNC(=N)N)NC(=O)[C@H](CCCCNC(=O)CCCCCN)NC(=O)[C@H](CCCNC(=N)N)NC(=O)[C@H](Cc1ccc(O)cc1)NC(=O)[C@H](CO)NC(=O)[C@@H](NC(=O)[C@H](C)NC(=O)CNC(=O)[C@@H]1CCCN1C(=O)[C@H](Cc1ccc(O)cc1)NC(=O)[C@H](C)NC(=O)[C@H](CC(C)C)NC(=O)[C@H](Cc1c[nH]c2ccccc12)NC(=O)[C@@H](N)CO)C(C)C)C(C)C)C(=O)N[C@@H](Cc1c[nH]c2ccccc12)C(=O)N[C@@H](CO)C(=O)O | – | Active | Active
4 | H-SALAYPGAVSYR-OH | ≥ 100 | – | –
5 | H-SWLSYPGAVSYR-OH | > 100 | – | –
